Test results taken from patent publication US9193708B2, “Non-flushing niacin analogues, and methods of use thereof” (Trustees of Tufts College, priority 2006, dated 2015).

Experiments:
[1] = tested on: Hep-G2 cells; test: HDL uptake by Hep-G2 cells (125I-labelled HDL), proxy for HDL-raising activity; type: cell-based; settings: compared with niacin
Protocol: • Split HepG2 cells in 24 well plates 2˜3 days prior to niacin treatment, 0.5 mL complete DMEM media is added per well • Cells were pre-incubated with niacin (1 mM) for 24˜48 h • Wash HepG2 cells 3 times with PBS • Incubate HepG2 cells in […] medium C(DMEM containing 5 mg/mL fatty acid free BSA), containing ^125I-labelled HDL ([…] with specificity ofo 300-500 cpm/ng HDL protein. For 16 h • Aspirate the media and wash the cells with 0.5 mL of 0.1 mg/mL BSA-PBS twice, and with PBS twice • Cells were digested in […] of 1 N NaOH at room temperature overnight • […] of cell lysate was used for gamma-counting • […] of cell lysate was used for protein assay by BCA method • HDL uptake activity is expressed as “cpm of ^125I-HDL uptake/mg of cell protein.

[2] = tested on: THP-1 macrophages; test: PGD2 release by THP-1 macrophages, proxy for flush inducing activity; type: cell-based; settings: compared with niacin
Protocol: THP-1 cells were grown in RPMI complete media • 2×10^6 cells/well in 24 well flask were seeded in serum free media containing […] of PMA. Cells were allowed to differentiate into macrophages for 12 hours • The media was replaced with complete RPMI media and incubation continued for 5 hours • After incubation, media was aspirated and cells were treated with niacin and niacin analogs in 1 mL of serum free RPMI media. • Incubated for 30 min. […] of media was collected, PGD2 secreted was derivitized into stable MOX derivative. • PGD2 in the sample was assayed by using PGD2 assay kit from Cayman chemicals. Incorporation By Reference

[3] = humans, daily oral doses of 2-3 g; cited from earlier work

Structure (SMILES)	reduction of HDL uptake / HDL-raising activity relative to niacin [1]	induction of PGD2 release / flush inducing activity relative to niacin [2]	effect on Lp(a) [3]
O=C(O)C/C=C/c1cccnc1 [Compound 2035, 4-pyridin-3-yl-but-3-enoic acid]	essentially as well as niacin	very much less ability to induce PDG2 release	
O=C(O)c1cccnc1 [niacin]			reduce Lp(a)
